# Test results from PMC10150354, “Linearization of the Brevicidine and Laterocidine Lipopeptides Yields Analogues That Retain Full Antibacterial Activity” (Journal of Medicinal Chemistry, 2023).
# Where a SMILES comes first, the peptide text is derived from it. [ ]: non-standard residue; d: D form. The star is where a group is joined. ξ: configuration not given here. Hexanoyl(4ξ-Me) = CCC(C)CCC(=O)*; dOrn = NCCC[C@@H](N)C(=O)O; Orn = NCCC[C@H](N)C(=O)O
# Tested on: E. coli ATCC 25922
# Assay type: cell-based, Escherichia coli
# Details: (Supplement 2)
# Procedure: Linear laterocidine (LL-OH, 4) and linear brevicidine (LB-OH, 5) were first synthesized by Fmoc SPPS, starting from 2-chlorotrityl (2-CT) chloride resin. The antibacterial activity of these peptides was then compared to brevicidine (1) and laterocidine (2) using minimum inhibitory concentration (MIC)/microbroth dilution assays (Table 1). The MICs of all peptides were determined against a panel of Gram-negative and Gram-positive ESKAPE pathogens. Additionally, a strain of E. coli carrying the mcr-1 gene was included in the panel. The mcr-1 gene is a transferrable plasmid that confers resistance against colistin, a last-resort antibiotic for Gram-negative infections, by reducing the overall negative charge of lipopolysaccharide (LPS) through modification of lipid A with phosphoethanolamine. The propensity for cationic antibiotics to bind to the cell membrane is therefore reduced. This gene has been observed in more than 27 bacterial species over six continents.[26] The spread of the mcr-1 gene could render colistin ineffectual; therefore, novel antibacterials are urgently required to overcome this form of resistance.
# All minimum inhibitory concentrations (MICs) were determined according to Clinical and Laboratory Standards Institute (CLSI) guidelines. Blood agar plates were inoculated with glycerol stocks of E. coli ATCC 25922, K. pneumoniae ATCC 13883, A. baumannii ATCC 17961, P. aeruginosa PAO1, and S. aureus USA300. The inoculated agar plates were then incubated for 16 h at 37 °C. Individually grown colonies were subsequently used to inoculate 5 mL aliquots of TSB that were then incubated at 37 °C with shaking at 220 rpm. E. coli 25922 MCR-1 glycerol stock was used to inoculate 5 mL of TSB supplemented with kanamycin that was then incubated for 16 h at 37 °C with shaking at 220 rpm. The next day the culture was diluted 100-fold in TSB supplemented with kanamycin and incubated at 37 °C with shaking at 220 rpm. In parallel, the lipopeptide antibiotics DMSO stocks to be assessed were serially diluted with MHB in polypropylene 96-well plates (50 μL in each well). Colistin sulfate stocks were dissolved in water before being diluted with MHB. Aliquots of the inoculated TSB were incubated until an OD600 of around 0.5 was reached. The bacterial suspensions were then diluted with MHB (2 × 10^5 CFU/mL) and added to the microplates containing the test compounds (50 μL to each well). The well plates were sealed with an adhesive membrane and after 18 h of incubation at 37 °C with shaking at 600 rpm, the wells were visually inspected for bacterial growth. MIC values reported are based on three technical replicates and defined as the lowest concentration of the compound that prevented visible growth of bacteria.
row,Compound,MIC (µg/mL) against E. coli (ATCC 25922) [µg/mL]
1,CCC(C)CCC(=O)N[C@H](CC(N)=O)C(=O)N[C@H](C)C(=O)N[C@H](Cc1c[nH]c2ccccc12)C(=O)N[C@H](CCCN)C(=O)N[C@@H](CCCN)C(=O)NCC(=O)N[C@H](CCCN)C(=O)N[C@@H](Cc1c[nH]c2ccccc12)C(=O)N[C@H](C(=O)N[C@H](C(=O)NCC(=O)N[C@@H](CO)C(N)=O)[C@@H](C)CC)[C@@H](C)O (stereo partly drawn) [LB(D-Ala2)-NH2 (18)] ({Hexanoyl(4ξ-Me)}-[dN][dA][dW][dOrn][Orn]G[dOrn]WTIGS-NH2),>32
2,CCC(C)CCC(=O)N[C@H](CC(N)=O)C(=O)N[C@H](Cc1ccc(O)cc1)C(=O)N[C@H](C)C(=O)N[C@H](CCCN)C(=O)N[C@@H](CCCN)C(=O)NCC(=O)N[C@H](CCCN)C(=O)N[C@@H](Cc1c[nH]c2ccccc12)C(=O)N[C@H](C(=O)N[C@H](C(=O)NCC(=O)N[C@@H](CO)C(N)=O)[C@@H](C)CC)[C@@H](C)O (stereo partly drawn) [LB(D-Ala3)-NH2 (19)] ({Hexanoyl(4ξ-Me)}-[dN][dY][dA][dOrn][Orn]G[dOrn]WTIGS-NH2),>32
3,CCC(C)CCC(=O)N[C@H](CC(N)=O)C(=O)N[C@H](Cc1ccc(O)cc1)C(=O)N[C@H](Cc1c[nH]c2ccccc12)C(=O)N[C@H](CCCN)C(=O)N[C@@H](CCCN)C(=O)NCC(=O)N[C@H](CCCN)C(=O)N[C@@H](Cc1c[nH]c2ccccc12)C(=O)N[C@H](C(=O)N[C@@H](C)C(=O)NCC(=O)N[C@@H](CO)C(N)=O)[C@@H](C)O (stereo partly drawn) [LB(Ala10)-NH2 (26)] ({Hexanoyl(4ξ-Me)}-[dN][dY][dW][dOrn][Orn]G[dOrn]WTAGS-NH2),>32
4,CCC(C)CCC(=O)N[C@H](CC(N)=O)C(=O)N[C@H](Cc1ccc(O)cc1)C(=O)N[C@H](Cc1c[nH]c2ccccc12)C(=O)N[C@H](CCCN)C(=O)N[C@@H](CCCN)C(=O)NCC(=O)N[C@H](CCCN)C(=O)N[C@@H](C)C(=O)N[C@H](C(=O)N[C@H](C(=O)NCC(=O)N[C@@H](CO)C(N)=O)[C@@H](C)CC)[C@@H](C)O (stereo partly drawn) [LB(Ala8)-NH2 (24)] ({Hexanoyl(4ξ-Me)}-[dN][dY][dW][dOrn][Orn]G[dOrn]ATIGS-NH2),>32
5,CCC(C)CCC(=O)N[C@H](CC(N)=O)C(=O)N[C@H](Cc1ccc(O)cc1)C(=O)N[C@H](Cc1c[nH]c2ccccc12)C(=O)N[C@H](CCCN)C(=O)N[C@@H](C)C(=O)NCC(=O)N[C@H](CCCN)C(=O)N[C@@H](Cc1c[nH]c2ccccc12)C(=O)N[C@H](C(=O)N[C@H](C(=O)NCC(=O)N[C@@H](CO)C(N)=O)[C@@H](C)CC)[C@@H](C)O (stereo partly drawn) [LB(Ala5)-NH2 (21)] ({Hexanoyl(4ξ-Me)}-[dN][dY][dW][dOrn]AG[dOrn]WTIGS-NH2),>32
6,CCC(C)CCC(=O)N[C@H](CC(N)=O)C(=O)N[C@H](Cc1ccc(O)cc1)C(=O)N[C@H](Cc1c[nH]c2ccccc12)C(=O)N[C@H](CCCN)C(=O)N[C@@H](CCCN)C(=O)NCC(=O)N[C@H](C)C(=O)N[C@@H](Cc1c[nH]c2ccccc12)C(=O)N[C@H](C(=O)N[C@H](C(=O)NCC(=O)N[C@@H](CO)C(N)=O)[C@@H](C)CC)[C@@H](C)O (stereo partly drawn) [LB(D-Ala7)-NH2 (23)] ({Hexanoyl(4ξ-Me)}-[dN][dY][dW][dOrn][Orn]G[dA]WTIGS-NH2),>32
